Experimental findings from ChEMBL document CHEMBL1134703, “Simplified catechin-gallate inhibitors of HIV-1 reverse transcriptase” (Bioorg Med Chem Lett, 2001) are described below.

This test has as its target Human immunodeficiency virus type 1 reverse transcriptase (Human immunodeficiency virus 1, UniProt Q72547). Briefly: Inhibition of polymerization in wild type HIV-1 RT with poly rC/dG12-18 template primer and [3H]dGTP.
For orientation: IC50 means the midpoint of a concentration-inhibition curve. High values mean weaker potency, low ones greater potency. `O=C(OCCC1COc2cc(O)c(O)cc2C1)c1ccc(O)c(O)c1O` (stereo not drawn) returned a half-maximal inhibitory concentration (IC50) of 10.7 µM.

With `O=C(OC1COc2cc(O)cc(O)c2C1)c1ccccc1` (stereo not drawn), the IC50 is over 100 µM.

In turn, `O=C(OC1COc2cccc(O)c2C1)c1ccc(O)c(O)c1O` (stereo not drawn) yielded an IC50 of 45.5 µM.

Molecule `O=C(O[C@@H]1Cc2c(O)cc(O)cc2O[C@@H]1c1cc(O)c(O)c(O)c1)c1cc(O)c(O)c(O)c1` [EPIGALOCATECHIN GALLATE] showed an IC50 of 0.73 µM.

In turn, `Oc1cc(O)c2c(c1)O[C@H](c1ccc(O)c(O)c1)[C@H](O)C2` [(-)-EPICATECHIN] returned an IC50 of over 100 µM.

With `O=C(O[C@@H]1Cc2c(O)cc(O)cc2O[C@@H]1c1ccc(O)c(O)c1)c1cc(O)c(O)c(O)c1` [EPICATECHIN GALLATE], 0.76 µM corresponded to half-maximal inhibition (IC50).

`O=C(OC1COc2cc(O)cc(O)c2C1)c1ccc(O)c(O)c1O` (stereo not drawn) displayed an IC50 of 3.83 µM.

`O=C(OC1COc2cc(O)cc(O)c2C1)c1ccc(O)cc1O` (stereo not drawn) showed an IC50 of 96.3 µM.

For `O=C(OC1COc2cc(O)ccc2C1)c1ccc(O)c(O)c1O` (stereo not drawn), the IC50 was 36.3 µM.

In the case of `O=C(OC1COc2ccccc2C1)c1ccc(O)c(O)c1O` (stereo not drawn), the IC50 is over 100 µM.

As to `O=C(O)c1cc(O)c(O)c(O)c1` [GALLIC ACID], the IC50 was over 100 µM.

The molecule `O=C(OC1COc2cc(O)cc(O)c2C1)c1cccc(O)c1O` (stereo not drawn) gave an IC50 of 37.2 µM.

Take `O=C(OC1COc2cc(O)cc(O)c2C1)c1cccc(O)c1` (stereo not drawn): the IC50 is over 100 µM.
